Data reported in the supplement of paper PMC10307832.

Assays:
Assay in all cases: relative viability (nuclei count vs DMSO), 5 days (fraction); higher = more cells survive
[1] = compound: C=CC(=O)N1CCC[C@@H](n2nc(-c3ccc(Oc4ccccc4)cc3)c3c(N)ncnc32)C1 [Ibrutinib] + N=C(N)NC(=N)NCCc1ccccc1 [Phenformin] (partner 250 µM)
Procedure, shortened: (§1)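 Lung cancer cell lines were pin-tool dosed in 1536-well plates on the day after seeding, with either a lone drug or a fixed anchor-drug dose plus five library-drug doses (not always all listed) in √10 steps. Nuclei were counted on 4× images after 5 days. Relative viability is the ratio of treated-well to vehicle-well nuclei counts, with each value a median of duplicate plates.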

[2] = compound: C=CC(=O)N1CCC[C@@H](n2nc(-c3ccc(Oc4ccccc4)cc3)c3c(N)ncnc32)C1 [Ibrutinib] + CS(=O)(=O)CCNCc1ccc(-c2ccc3ncnc(Nc4ccc(OCc5cccc(F)c5)c(Cl)c4)c3c2)o1 [Lapatinib] (partner 2 µM)
Procedure, shortened: as §1

[3] = compound: C=CC(=O)Nc1cc(-n2c(=O)ccc3cnc4ccc(-c5ccc(NS(C)(=O)=O)cc5)cc4c32)ccc1C [BMX-IN-1] + Cc1nc(NC(=O)N2CCC[C@H]2C(N)=O)sc1-c1ccnc(C(C)(C)C(F)(F)F)c1 [Alpelisib] (partner 2 µM)
Procedure, shortened: as §1

[4] = compound: C=CC(=O)N1CCC[C@@H](n2nc(-c3ccc(Oc4ccccc4)cc3)c3c(N)ncnc32)C1 [Ibrutinib] + CC(=O)Nc1cccc(-n2c(=O)n(C3CC3)c(=O)c3c(Nc4ccc(I)cc4F)n(C)c(=O)c(C)c32)c1 [Trametinib] (partner 0.02 µM)
Procedure, shortened: as §1

Question: SK-MES-1 was tested. Which relative viability ([1]; first compound 0.005 µM) did it give?
Answer: 0.733

Question: And the relative viability ([1]; first compound 0.01581 µM)?
Answer: 0.629

Question: What about the relative viability ([1]; first compound 0.05 µM) of the same cell line?
Answer: 0.638

Question: And the relative viability ([1]; first compound 0.1581 µM)?
Answer: 0.704

Question: And the relative viability ([1]; first compound 0.5 µM)?
Answer: 0.501

Question: What about the relative viability ([2]; first compound 0.005 µM) of the same cell line?
Answer: 0.506

Question: And the relative viability ([2]; first compound 0.01581 µM)?
Answer: 0.456

Question: What about the relative viability ([2]; first compound 0.05 µM) of the same cell line?
Answer: 0.461

Question: What about the relative viability ([2]; first compound 0.1581 µM) of the same cell line?
Answer: 0.446

Question: And the relative viability ([2]; first compound 0.5 µM)?
Answer: 0.441

Question: And the relative viability ([3]; first compound 0.02 µM)?
Answer: 1.09

Question: And the relative viability ([3]; first compound 0.2 µM)?
Answer: 0.947

Question: And the relative viability ([3]; first compound 0.6325 µM)?
Answer: 0.911

Question: What about the relative viability ([3]; first compound 2 µM) of the same cell line?
Answer: 0.88

Question: What about the relative viability ([4]; first compound 0.005 µM) of the same cell line?
Answer: 0.591

Question: What about the relative viability ([4]; first compound 0.01581 µM) of the same cell line?
Answer: 0.467

Question: And the relative viability ([4]; first compound 0.05 µM)?
Answer: 0.36

Question: And the relative viability ([4]; first compound 0.1581 µM)?
Answer: 0.611

Question: And the relative viability ([4]; first compound 0.5 µM)?
Answer: 0.297
